The nature of data set [1]: Hydroxyapatite (HA) binding assay. The conditions noted are these: 800 μM, 4 mM sodium phosphate, 150 mM sodium chloride, pH 7.4, 15 mg HA, 37 °C, 0-80 min, HPLC. On the procedure: Acacetin-EMCH-D6 and acacetin were dissolved, respectively, in a buffer containing 4 mM sodium phosphate and 150 mM sodium chloride (pH = 7.4), to a final concentration of 800 μM; 15 mg of HA was added and incubated in a 37 °C water bath; 20 μL aliquots were taken after 0, 10, 20, 40, and 80 min and quantified by HPLC.

Data set [2] relates to BMMs. The experiment in a line: Cytotoxicity assay (CCK-8). The class given is cell-based, C57BL/6J mice. The note with it: 48 h and 96 h, CCK-8, n = 6. On the procedure:
In brief, the hind limbs of C57BL/6J mice were used to isolate bone marrow cells and cultured in α-MEM containing 10% FBS and 1% penicillin-streptomycin for one day to generate BMMs as described previously; 25 ng/mL […] Systems, Minneapolis, MN, USA) and 50 ng/mL […] Systems, Minneapolis, MN, USA) were used for the preparation of osteoclasts. […] The medium was changed every 2 days. After 48 h and 96 h of culture, CCK8 reagent (10 μL/well, Dojindo, Kumamoto, Japan) was added to each well. Then, the cells were incubated in darkness at 37 °C for 2 h. The absorbance was recorded using a microplate reader (Thermo Fisher Scientific, Waltham, MA, USA) at 450 nm.

Data set [3] concerns BMMs stimulated with RANKL and M-CSF. The experiment in a line: TRAP staining, osteoclast differentiation. Format: cell-based, C57BL/6J mice. The note with it: 7 days. As to the method: In brief, the hind limbs of C57BL/6J mice were used to isolate bone marrow cells and cultured in α-MEM containing 10% FBS and 1% penicillin-streptomycin for one day to generate BMMs as described previously; 25 ng/mL […] Systems, Minneapolis, MN, USA) and 50 ng/mL […] Systems, Minneapolis, MN, USA) were used for the preparation of osteoclasts. […] TRAP-positive multinucleated osteoclasts (≥3 nuclei) were counted using a TRAP kit (Zhejiang Zhuoteng Biological, Shaoxing, China) according to the manufacturer's instructions. BMMs were induced by RANKL (50 ng/mL) and M-CSF (25 ng/mL) in the presence of acacetin (25 μM) and rapamycin (50 nmol/L) for 7 days. TRAP-positive multinucleated osteoclasts (≥3 nuclei) were counted.

Data set [4] has the same test system. The experiment in a line: Bone resorption assay (Osteo Assay Surface plate). Format: cell-based, C57BL/6J mice. On the procedure:
In brief, the hind limbs of C57BL/6J mice were used to isolate bone marrow cells and cultured in α-MEM containing 10% FBS and 1% penicillin-streptomycin for one day to generate BMMs as described previously; 25 ng/mL M-CSF (416-ML-010/CF, R&D Systems, Minneapolis, MN, USA) and 50 ng/mL RANKL (462-TR-010/CF, R&D Systems, Minneapolis, MN, USA) were used for the preparation of osteoclasts.
Assays for bone resorption were performed using Corning Osteo Assay Surface plate (Sigma-Aldrich, Hongkong, China). We analyzed bone resorption pits with a light microscope and quantified pits area using Image J software (NIH, Bethesda, MD, USA).

Data set [5] relates to mRNA expression of TRAP, NFATc1, and CTSK. The experiment in a line: RT-PCR of osteoclast genes. The conditions noted are these: BMMs, RANKL and M-CSF, 12.5, 25 μM, 3 days, n = 3. Format: cell-based, C57BL/6J mice. On the procedure: The total RNA was extracted from cells or tissues using TRIzol reagent (Thermo Fisher Scientific, Waltham, MA, USA) according to the manufacturer’s instructions. PrimeScript^TM RT Master Mix (RR036Q, Takara, San Jose, CA, USA) was used to reverse transcribe 1 μg of total RNA extracted into complementary DNA (cDNA) for subsequent RT-PCR reactions using qTOWER real-time PCR thermal cycler (Analytik Jena, Jena, Germany).

Data set [6] deals with PI3K/AKT/mTOR pathway. In words: Western blotting, PI3K/AKT/mTOR phosphorylation. The class given is cell-based, C57BL/6J mice. The conditions noted are these: BMMs, RANKL and M-CSF, acacetin 25 μM, 6 h, n = 3. On the procedure: (§1) RIPA lysate (50 × protease inhibitor, 50 × phosphatase inhibitor) was used to extract total protein from the cells. Then, 20 μg protein or protein marker per lane (PageRuler ™ (ThermoFisher Scientific, Waltham, MA, USA) Prestained Protein Ladder 10kD-180KD or HiMark™ (ThermoFisher Scientific, Waltham, MA, USA) Pre-stained Protein Standard 31 kd-460 kd) was loaded onto an SDS gel (30% Acrylamide, 1.5 M Tris-HCl, 10% SDS, 10% Ammonium persulfate and TEMED) and subjected to electrophoresis and transferred to a polyvinylidene fluoride membrane. The membrane was blocked with 5% BSA for 4 h and incubated with the specific primary antibody overnight at 4 °C. Then, the membrane was incubated with a secondary antibody (IRDye) for 1 h at room temperature. Bio-Rad ChemiDoc MP imaging system (Bio-Rad Laboratories, Hercules, CA, USA) was used to visualize protein bands and ImageJ software was used to calculate relative protein expression based on grayscale blots.
(§2) Antibodies including p-AKT (Ser473; #4060), AKT (#4691), LC3A/B Antibody (#4108), p-mTOR (Ser2448; #5536), mTOR (#2983), c-Fos (#2250), NFATc1 (#8032), p-PI3K (#4228), PI3K (#4249), and GAPDH (#5174) were purchased from Cell Signalling Technology (Denver, MA, USA).

Data set [7] relates to LC3II. In words: Western blotting, LC3II (autophagy). Format: cell-based, C57BL/6J mice. The note with it: BMMs, RANKL and M-CSF, 6 h. As to the method: as §1, §2
(A western blot detects proteins with antibodies after separation by electrophoresis.)

The subject of data set [8] is c-Fos and NFATc1. The experiment in a line: Western blotting, c-Fos and NFATc1. Format: cell-based, C57BL/6J mice. The note with it: BMMs, RANKL and M-CSF, 3 days. On the procedure:
as §1, §2

Data set [9] deals with OVX mice. The experiment in a line: OVX mouse model of osteoporosis. The class given is in vivo, C57BL/6J mice. The conditions noted are these: for anti-osteoporotic effects (OVX-induced bone loss; BMD and BV/TV, micro-CT of tibia): i.p. 5 mg/kg/3 day for 5 weeks.
For data set [10] the following is noted: plasma, after intravenous administration; cited from earlier work. The text has this:
(§3) Osteoporosis following the estrogen withdrawal of menopause is a serious global clinical problem with a significant increase in the risk of fractures. Supplementation of estrogen is not recommended for the long-term treatment of postmenopausal bone loss because of the increased risk of breast cancers and cardiovascular events. Pure compounds isolated from natural products are emerging as potential therapeutics for postmenopausal osteoporosis. Acacetin is a di-hydroxy and mono-methoxy flavone widely distributed in various plants including the Acacia tree, black locust, and ...

For data set [11], the system named is ovariectomized (OVX) mice. The conditions noted are these: 20 mg/kg/day for 8 weeks; ref 11 (Lin et al.); cited from earlier work.
Description: as §3

For data set [12] the following is noted: statement of the design section, reference not given; cited from earlier work. An excerpt: The next step is the identification of bone-targeting peptides. Bone tissue, as a special connective tissue, consists of a variety of cells and intercellular bone matrix, with high inorganic salt content which is mainly composed of HA. In recent years, more and more peptide sequences with excellent bone-targeting ability have been discovered. Compared with bone-targeting small molecules, these peptides have more specific mechanisms, high affinity and low side effects. Considering that acacetin has an excellent inhibitory effect on osteoclasts, we selected […] ...

Setting [13] is: i.p. 17.5 μmol/kg every 3 days for 5 weeks.
The mark [14] stands for this setting: i.p. 17.5 μmol/kg every 3 days for 5 weeks, n = 6.
Where [15] appears, read: acacetin 25 μM and rapamycin 50 nmol/L.
Where [16] appears, read: Acacetin-EMCH-D6 17.5 μmol/kg and rapamycin 1 mg/kg i.p. every 3 days, 5 weeks, at least in part.
Where [17] appears, read: Acacetin-EMCH-D6 17.5 μmol/kg and rapamycin 1 mg/kg i.p. every 3 days, 5 weeks, proximal tibia.

Ends that are not written are not given here.

In the case of `COc1ccc(-c2cc(=O)c3c(O)cc(O)cc3o2)cc1` [acacetin], the “binding to hydroxyapatite (HA)” value in data set [1] was “very weak binding”. Besides, in data set [2] (dose more than 50 μM), the cell viability entry is reported as “reduced cell viability”. Besides, the cell viability entry in data set [2] (dose of 6.25, 12.5, and 25 μM) is “did not affect cell viability”. Moreover, the “number of TRAP-positive osteoclasts (nuclei ≥ 3)” value in data set [3] (RANKL 50 ng/mL and M-CSF 25 ng/mL, 12.5, 25 μM, n = 3) was “significantly diminished”. In [4] (RANKL 50 ng/mL and M-CSF 25 ng/mL, 12.5, 25 μM added for 3 days after immature osteoclasts formed, n = 3), the “area of bone resorption pits” value was “significantly diminished”. In data set [5], the “mRNA expression of CTSK” value was “suppressed”, the “mRNA expression of NFATc1” value is “suppressed” and the “mRNA expression of TRAP” value is “suppressed”. In [6], the “RANKL+M-CSF-induced reduction of AKT phosphorylation” value is “reversed”, the “RANKL+M-CSF-induced reduction of PI3K phosphorylation” value is reported as “reversed” and the “RANKL+M-CSF-induced reduction of mTOR phosphorylation” value is given as “reversed”. Moreover, the “RANKL+M-CSF-induced increase of LC3II protein levels” value in data set [7] (acacetin 25 μM, n = 3) is given as “reversed”. Further, in data set [8] (acacetin 25 μM), the “protein expression of NFATc1” value is listed as “downregulated” and the “protein expression of c-Fos” value is reported as “downregulated”. Further, in data set [9] (setting [13]), the “BMD, proximal tibia and L5 vertebra (micro-CT), OVX-induced change” value is “no significant effect”; the “BV/TV, proximal tibia and L5 vertebra (micro-CT), OVX-induced change” value is “no significant effect”; the “Tb.N, proximal tibia and L5 vertebra (micro-CT), OVX-induced change” value is listed as “no significant effect”; the “Tb.Sp, proximal tibia and L5 vertebra (micro-CT), OVX-induced change” value is “no significant effect”. In addition, the “number of TRAP-positive cells, proximal tibia (OVX-induced increase)” value in data set [9] (setting [13]) is on record as “did not affect the histological changes”. Besides, in data set [9] (setting [14]), the “plasma CTX-1 levels” value is given as “no significant effect”; the “trabecular density and thickness, proximal tibia (H&E staining)” value is “did not affect the histological changes”. For the same molecule, the “anti-osteoporotic effects (OVX-induced bone loss; BMD and BV/TV, micro-CT of tibia)” value in data set [9] (n = 6, Figure S1, 5 mg/kg) is “did not observe its anti-osteoporotic effects”. The “anti-osteoporotic effects (OVX-induced bone loss; BMD and BV/TV, micro-CT of tibia)” value in data set [9] (n = 6, Figure S1, listed as Acacetin, 5 mg/kg) is listed as “no effect on OVX-induced bone loss”. In addition, the terminal half-life in data set [10] is on record as 1.48 h. Further, in data set [11], the “bone loss in ovariectomized (OVX) mice” value is “protected against bone loss”.

`CO[C@H]1C[C@@H]2CC[C@@H](C)[C@@](O)(O2)C(=O)C(=O)N2CCCC[C@H]2C(=O)O[C@H]([C@H](C)C[C@@H]2CC[C@@H](O)[C@H](OC)C2)CC(=O)[C@H](C)/C=C(\C)[C@@H](O)[C@@H](OC)C(=O)[C@H](C)C[C@H](C)/C=C/C=C/C=C/1C` [rapamycin]: the “effect of rapamycin co-treatment on inhibition of osteoclast differentiation by acacetin (TRAP assay)” value in data set [3] (RANKL and M-CSF, acacetin 25 μM and rapamycin 50 nmol/L) was “partly reversed”. In addition, the “effect of rapamycin co-treatment on inhibition of bone resorption by acacetin” value in data set [4] (RANKL and M-CSF, acacetin 25 μM and rapamycin 50 nmol/L, 3 days) is “partly reversed”. The “effect of rapamycin co-treatment on inhibition of LC3II protein levels by acacetin” value in data set [7] (setting [15]) was “abolished”. Moreover, in [8] (setting [15]), the “effect of rapamycin co-treatment on downregulation of NFATc1 protein by acacetin” value is “partially reversed” and the “effect of rapamycin co-treatment on downregulation of c-Fos protein by acacetin” value was “partially reversed”. Further, in data set [9] (setting [16]), the “effect of rapamycin co-treatment on BMD augmentation by Acacetin-EMCH-D6” value was “reversed”, the “effect of rapamycin co-treatment on BV/TV augmentation by Acacetin-EMCH-D6” value is listed as “reversed”, the “effect of rapamycin co-treatment on Tb.N augmentation by Acacetin-EMCH-D6” value is “reversed” and the “effect of rapamycin co-treatment on Tb.Sp reduction by Acacetin-EMCH-D6” value was “reversed”. In data set [9] (setting [17]), the “effect of rapamycin co-treatment on reduction of LC3 dots by Acacetin-EMCH-D6” value is on record as “partly reversed” and the “effect of rapamycin co-treatment on reduction of TRAP-positive osteoclasts by Acacetin-EMCH-D6” value is listed as “partly reversed”.

Regarding “DDDDDD [D6, medium-length polyaspartic acid, bone targeting peptide]”, the HA affinity entry in data set [12] is “comparable to tetracycline and calcein”.

The values above are taken from publication PMC9867347, “An Acid-Sensitive Bone Targeting Delivery System Carrying Acacetin Prevents Osteoporosis in Ovariectomized Mice” (Pharmaceuticals, 2022).
